From patent US10881110B2, “Herbicidal compositions comprising isoxazolo[5,4-b]pyridines” (BASF SE, priority 2014, dated 2021)

Assays:
Test in all cases: greenhouse post-emergence herbicidal test
ABUTH = type: in vivo, Abutilon theophrast; parameters: key to herbicidal activity against ABUTH found: rating on a scale from 0 to 100; details: post emergence
Protocol: (§1) The culture containers used were plastic pots containing medium loamy sand with approximately 4.6% of humus and 69.9% sand as substrate. The seeds of the test plants were sown separately for each species.
(§2) For the post-emergence treatment, the test plants were grown to a plant height of from 1 to 15 cm, depending on the plant habit, and only then treated with the active compounds which had been suspended or emulsified in water. To this end, the test plants were either sown directly, and grown in the same containers, or they were first grown separately as seedlings and transplanted into the test containers a few days prior to treatment.
(§3) Depending on the species, the plants were kept at 10-25° C. and 20-35° C., respectively.
(§4) The test period extended over 1 to 3 weeks. During this time, the plants were tended and their response to the individual treatments was evaluated 20 days after treatment except mentioned otherwise.
(§5) Evaluation was carried out using a scale from 0 to 100. 100 means no emergence of the plants, or complete destruction of at least the above-ground parts, and 0 means no damage or normal course of growth.
(§6) The respective stated components A and B, and, if appropriate, C, were formulated as a 10% by weight strength emulsion concentrate and, with addition of the amount of solvent system, introduced into the spray liquor used for applying the active compound. In the examples, the solvent used was water.
(§7) In the examples below, using the method of S. R. Colby (1967) “Calculating synergistic and antagonistic responses of herbicide combinations”, Weeds 15, p. 22 ff., the value E, which is expected if the activity of the individual active compounds is only additive, was calculated. E=X+Y−(X·Y/100)

ERICA = type: in vivo, Conyza canadensis; parameters: key to herbicidal activity against ERICA found: rating on a scale from 0 to 100; details: post emergence
Protocol: as §1, §2, §3, §4, §5, §6, §7

GERDI = type: in vivo, Geranium dissectum; details: Geranium dissectum, post-emergence, 480 h, post emergence, read-out: herbicidal activity against GERDI found
Protocol: as §1, §2, §3, §4, §5, §6, §7

MATCH = type: in vivo, Matricaria recutita; parameters: key to herbicidal activity against MATCH found: rating on a scale from 0 to 100; details: post emergence
Protocol: as §1, §2, §3, §4, §5, §6, §7

POLCO = type: in vivo, Polygonum convolvulus; parameters: key to herbicidal activity against POLCO found: rating on a scale from 0 to 100; details: post emergence
Protocol: as §1, §2, §3, §4, §5, §6, §7

VIOAR = type: in vivo, Viola arvensis; parameters: key to herbicidal activity against VIOAR found / herbicidal activity against VIOLA found: rating on a scale from 0 to 100; details: post emergence
Protocol: as §1, §2, §3, §4, §5, §6, §7

ALOMY = type: in vivo, Alopecurus myosuroides; parameters: key to herbicidal activity against ALOMY found: rating on a scale from 0 to 100; details: post emergence
Protocol: as §1, §2, §3, §4, §5, §6, §7

GALAP = type: in vivo, Galium aparine; parameters: key to herbicidal activity against GALAP found: rating on a scale from 0 to 100; details: post emergence
Protocol: as §1, §2, §3, §4, §5, §6, §7

APESV = type: in vivo, Apera spica-venti; parameters: key to herbicidal activity against APESV found: rating on a scale from 0 to 100; details: post emergence; applied alone at 0.5 g/ha a.i.
Protocol: as §1, §2, §3, §4, §5, §6, §7

[1] = g/ha a.i.: I.1 125, B.63 0.5, mixture 125+0.5
[2] = g/ha a.i.: I.1 125, B.63 1, mixture 125+1
[3] = a.i. g/ha: I.1 31.25, B.92 0.5, 20 days after treatment
[4] = application rate a.i.: I.1 20.8 g/ha, B.107 (topramezone) 6 g/ha, alone or as mixture (composition 1.107)
[5] = application rate a.i.: I.1 62.5 g/ha, B.107 (topramezone) 6 g/ha, alone or as mixture (composition 1.107)
[6] = applied alone at 31.25 g/ha a.i.
[7] = applied alone at 62.5 g/ha a.i.

CC(C)C1(C)N=C(c2ncccc2C(=O)O)NC1=O (centres unmarked) [B.35, imazapyr]
pest or weed control at 10 g/ha (ABUTH; Abutilon theophrasti, post-emergence, 480 h, 10 g/ha a.i., read-out: herbicidal activity against ABUTH found): 90%
pest or weed control at 5 g/ha (ERICA; Erigeron canadensis, post-emergence, 480 h, 5 g/ha a.i., read-out: herbicidal activity against ERICA found): 75%
pest or weed control at 10 g/ha (GERDI; 10 g/ha a.i.): 95%
pest or weed control at 10 g/ha (MATCH; Matricaria chamomilla, post-emergence, 480 h, 10 g/ha a.i., read-out: herbicidal activity against MATCH found): 55%
pest or weed control at 5 g/ha (POLCO; Fallopia convolvulus, post-emergence, 480 h, 5 g/ha a.i., read-out: herbicidal activity against POLCO found): 95%
pest or weed control at 5 g/ha (VIOAR; Viola arvensis, post-emergence, 5 g/ha a.i., read-out: herbicidal activity against VIOAR found): 55%

COC(=O)c1ccc(I)cc1S(=O)(=O)[N-]C(=O)Nc1nc(C)nc(OC)n1.[Na+] [B.44, iodosulfuron-methyl-sodium]
herbicidal activity against ALOMY found (ALOMY; 1 g/ha a.i.): 20
herbicidal activity against POLCO found (POLCO; 1 g/ha a.i.): 90

COC(=O)c1ccccc1S(=O)(=O)NC(=O)N(C)c1nc(C)nc(OC)n1 [B.63, tribenuron-methyl]
herbicidal activity against ALOMY found (ALOMY; [1]): 0
herbicidal activity against MATCH found (MATCH; [1]): 30
herbicidal activity against POLCO found (POLCO; g/ha a.i.: I.1 31.25, B.63 1, mixture 31.25+1): 30
herbicidal activity against POLCO found (POLCO; [1]): 20
herbicidal activity against POLCO found (POLCO; [2]): 30
herbicidal activity against VIOAR found (VIOAR; g/ha a.i.: I.1 62.5, B.63 0.5, mixture 62.5+0.5): 65
herbicidal activity against VIOAR found (VIOAR; [2]): 40

CC(C)N(C)S(=O)(=O)NC(=O)c1cc(-n2c(=O)cc(C(F)(F)F)n(C)c2=O)c(F)cc1Cl [B.92, saflufenacil]
herbicidal activity against ERICA found (ERICA; [3]): 80%
herbicidal activity against GALAP found (GALAP; [3]): 80%

Cc1c(C(=O)c2cnn(C)c2O)ccc(S(C)(=O)=O)c1C1=NOCC1 [B.107, topramezone]
herbicidal activity against ABUTH found (ABUTH; [4]): 85
herbicidal activity against ABUTH found (ABUTH; [5]): 85
herbicidal activity against ERICA found (ERICA; [4]): 65
herbicidal activity against ERICA found (ERICA; [5]): 65
herbicidal activity against GALAP found (GALAP; [5]): 70
herbicidal activity against MATCH found (MATCH; [4]): 70
herbicidal activity against POLCO found (POLCO; [5]): 35

CCC(CC)Nc1c([N+](=O)[O-])cc(C)c(C)c1[N+](=O)[O-] [B.123, pendimethalin]
pest or weed control at 500 g/ha (ERICA; Erigeron canadensis, post-emergence, 480 h, B.123 alone 500 g/ha a.i., read-out: herbicidal activity against ERICA found): 30%
pest or weed control at 1000 g/ha (ERICA; Erigeron canadensis, post-emergence, 480 h, B.123 alone 1000 g/ha a.i., read-out: herbicidal activity against ERICA found): 60%
pest or weed control at 1000 g/ha (GERDI; B.123 alone 1000 g/ha a.i.): 75%
pest or weed control at 1000 g/ha (POLCO; Fallopia convolvulus, post-emergence, 480 h, B.123 alone 1000 g/ha a.i., read-out: herbicidal activity against POLCO found): 65%

CCCOCCN(C(=O)CCl)c1c(CC)cccc1CC [B.135, pretilachlor]
pest or weed control at 100 g/ha (ABUTH; Abutilon theophrasti, post-emergence, 480 h, B.135 100 g/ha a.i., read-out: herbicidal activity against ABUTH found): 0%
pest or weed control at 200 g/ha (ABUTH; Abutilon theophrasti, post-emergence, 480 h, B.135 200 g/ha a.i., read-out: herbicidal activity against ABUTH found): 0%
pest or weed control at 400 g/ha (ABUTH; Abutilon theophrasti, post-emergence, 480 h, B.135 400 g/ha a.i., read-out: herbicidal activity against ABUTH found): 0%
pest or weed control at 100 g/ha (ERICA; Erigeron canadensis, post-emergence, 480 h, B.135 100 g/ha a.i., read-out: herbicidal activity against ERICA found): 0%
pest or weed control at 200 g/ha (ERICA; Erigeron canadensis, post-emergence, 480 h, B.135 200 g/ha a.i., read-out: herbicidal activity against ERICA found): 0%
pest or weed control at 400 g/ha (ERICA; Erigeron canadensis, post-emergence, 480 h, B.135 400 g/ha a.i., read-out: herbicidal activity against ERICA found): 20%
pest or weed control at 200 g/ha (GALAP; Galium aparine, post-emergence, 480 h, B.135 200 g/ha a.i., read-out: herbicidal activity against GALAP found): 0%
pest or weed control at 100 g/ha (GERDI; B.135 100 g/ha a.i.): 0%
pest or weed control at 200 g/ha (GERDI; B.135 200 g/ha a.i.): 0%
pest or weed control at 400 g/ha (GERDI; B.135 400 g/ha a.i.): 0%
pest or weed control at 200 g/ha (MATCH; Matricaria chamomilla, post-emergence, 480 h, B.135 200 g/ha a.i., read-out: herbicidal activity against MATCH found): 0%
pest or weed control at 400 g/ha (MATCH; Matricaria chamomilla, post-emergence, 480 h, B.135 400 g/ha a.i., read-out: herbicidal activity against MATCH found): 0%
pest or weed control at 200 g/ha (POLCO; Fallopia convolvulus, post-emergence, 480 h, B.135 200 g/ha a.i., read-out: herbicidal activity against POLCO found): 0%

O=C(O)COc1ccc(Cl)cc1Cl [B.140, 2,4-D]
herbicidal activity against ABUTH found (ABUTH; [6]): 35
herbicidal activity against ABUTH found (ABUTH; [7]): 85
herbicidal activity against ALOMY found (ALOMY; [6]): 0
herbicidal activity against ALOMY found (ALOMY; [7]): 0
herbicidal activity against ERICA found (ERICA; [6]): 70
herbicidal activity against ERICA found (ERICA; [7]): 80
herbicidal activity against GALAP found (GALAP; [6]): 0
herbicidal activity against GALAP found (GALAP; [7]): 0
herbicidal activity against MATCH found (MATCH; [6]): 0
herbicidal activity against POLCO found (POLCO; [6]): 65
herbicidal activity against POLCO found (POLCO; [7]): 75
herbicidal activity against VIOAR found (VIOAR; [6]): 60
herbicidal activity against VIOAR found (VIOAR; [7]): 65

CCCCCCCC/C=C\CCCCCCCC(=O)OC [methyl oleate]
pest or weed control at 6 g/ha (ABUTH; Abutilon theophrasti, post-emergence, 480 h, methyl oleate 6 g/ha a.i., read-out: herbicidal activity against ABUTH found): 0%
pest or weed control at 12 g/ha (ABUTH; Abutilon theophrasti, post-emergence, 480 h, methyl oleate 12 g/ha a.i., read-out: herbicidal activity against ABUTH found): 0%
pest or weed control at 3 g/ha (ERICA; Erigeron canadensis, post-emergence, 480 h, methyl oleate 3 g/ha a.i., read-out: herbicidal activity against ERICA found): 0%
pest or weed control at 6 g/ha (ERICA; Erigeron canadensis, post-emergence, 480 h, methyl oleate 6 g/ha a.i., read-out: herbicidal activity against ERICA found): 0%
pest or weed control at 12 g/ha (ERICA; Erigeron canadensis, post-emergence, 480 h, methyl oleate 12 g/ha a.i., read-out: herbicidal activity against ERICA found): 0%
pest or weed control at 12 g/ha (GALAP; Galium aparine, post-emergence, 480 h, methyl oleate 12 g/ha a.i., read-out: herbicidal activity against GALAP found): 0%
pest or weed control at 3 g/ha (GERDI; methyl oleate 3 g/ha a.i.): 0%
pest or weed control at 6 g/ha (GERDI; methyl oleate 6 g/ha a.i.): 0%
pest or weed control at 12 g/ha (GERDI; methyl oleate 12 g/ha a.i.): 0%
pest or weed control at 3 g/ha (MATCH; Matricaria chamomilla, post-emergence, 480 h, methyl oleate 3 g/ha a.i., read-out: herbicidal activity against MATCH found): 0%
pest or weed control at 6 g/ha (MATCH; Matricaria chamomilla, post-emergence, 480 h, methyl oleate 6 g/ha a.i., read-out: herbicidal activity against MATCH found): 0%
pest or weed control at 12 g/ha (MATCH; Matricaria chamomilla, post-emergence, 480 h, methyl oleate 12 g/ha a.i., read-out: herbicidal activity against MATCH found): 0%
pest or weed control at 3 g/ha (POLCO; Fallopia convolvulus, post-emergence, 480 h, methyl oleate 3 g/ha a.i., read-out: herbicidal activity against POLCO found): 0%
pest or weed control at 6 g/ha (POLCO; Fallopia convolvulus, post-emergence, 480 h, methyl oleate 6 g/ha a.i., read-out: herbicidal activity against POLCO found): 0%
pest or weed control at 12 g/ha (POLCO; Fallopia convolvulus, post-emergence, 480 h, methyl oleate 12 g/ha a.i., read-out: herbicidal activity against POLCO found): 0%

COc1nn(C(=O)NS(=O)(=O)c2c(C(=O)O)csc2C)c(=O)n1C [thiencarbazone]
herbicidal activity against APESV found (APESV): 25
herbicidal activity against ERICA found (ERICA; applied alone at 0.5 g/ha a.i.): 85
